IC50 data for 14 compounds are collected here from patent publication US20250215029A1 (Recludix Pharma, Inc., priority 2022, published 2025).

Each structure is given as a SMILES string.

In test [1] the target is T1, Recombinant STAT3 protein (STAT3 (G127-I722)) (Homo sapiens, UniProt P40763).
T1 construct: Recombinant STAT3 protein (STAT3 (G127-I722))
In words: STAT3 Fluorescence Polarization (FP) Assay. Conditions: STAT3 (G127-I722) 25 nM, probe 5-FAM-GpYLPQTV-NH2 2 nM, 45-minute incubation; read-out: STAT3 (FP assay IC50 class). Type of test: binding. An outline of the steps:
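In this competition FP format, STAT3 residues G127-I722 (25 nM) and 2 nM 5-FAM-GpYLPQTV-NH2 met test compounds for 45 min at room temperature. IC50 values result from fitting mP signal against log concentration by nonlinear regression.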
A general note: Polarisation of emitted light reports the rotation of a fluorescent probe.

Test [2] has as its target T2, Recombinant STAT6 protein (STAT6 (W123-T658)) (Homo sapiens, UniProt P42226).
T2 construct: Recombinant STAT6 protein (STAT6 (W123-T658))
T2 sequence (P42226 123-658): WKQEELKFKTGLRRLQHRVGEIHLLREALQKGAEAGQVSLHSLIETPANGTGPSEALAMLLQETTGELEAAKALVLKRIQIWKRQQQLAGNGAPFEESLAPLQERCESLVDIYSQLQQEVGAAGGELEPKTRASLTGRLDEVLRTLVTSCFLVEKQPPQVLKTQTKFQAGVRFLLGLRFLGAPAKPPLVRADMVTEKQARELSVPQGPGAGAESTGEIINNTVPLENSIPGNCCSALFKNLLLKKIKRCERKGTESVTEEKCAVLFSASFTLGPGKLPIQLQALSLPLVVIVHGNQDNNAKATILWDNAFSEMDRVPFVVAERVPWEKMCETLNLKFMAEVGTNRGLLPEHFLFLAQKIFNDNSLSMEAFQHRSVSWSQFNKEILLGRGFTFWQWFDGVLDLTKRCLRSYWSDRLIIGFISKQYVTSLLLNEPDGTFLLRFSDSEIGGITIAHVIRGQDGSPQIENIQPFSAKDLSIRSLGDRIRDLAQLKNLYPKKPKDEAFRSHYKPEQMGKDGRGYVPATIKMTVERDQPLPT
In words: STAT6 Fluorescence Polarization (FP) Assay. Type of test: binding. The following applies: STAT6 (W123-T658) 250 nM, probe 5-FAM-Ap[…]-NH2 2 nM, 45-minute incubation; read-out: STAT6 (FP assay IC50 class). An outline of the steps: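 Displacement of a fluorescent phosphotyrosine peptide (2 nM) from 250 nM STAT6 (W123-T658) is measured by polarization after a 45-minute room-temperature incubation. Compounds are titrated serially at 1% DMSO, and IC50 values derive from regression of mP on log concentration.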

T1 sequence (P40763 127-722): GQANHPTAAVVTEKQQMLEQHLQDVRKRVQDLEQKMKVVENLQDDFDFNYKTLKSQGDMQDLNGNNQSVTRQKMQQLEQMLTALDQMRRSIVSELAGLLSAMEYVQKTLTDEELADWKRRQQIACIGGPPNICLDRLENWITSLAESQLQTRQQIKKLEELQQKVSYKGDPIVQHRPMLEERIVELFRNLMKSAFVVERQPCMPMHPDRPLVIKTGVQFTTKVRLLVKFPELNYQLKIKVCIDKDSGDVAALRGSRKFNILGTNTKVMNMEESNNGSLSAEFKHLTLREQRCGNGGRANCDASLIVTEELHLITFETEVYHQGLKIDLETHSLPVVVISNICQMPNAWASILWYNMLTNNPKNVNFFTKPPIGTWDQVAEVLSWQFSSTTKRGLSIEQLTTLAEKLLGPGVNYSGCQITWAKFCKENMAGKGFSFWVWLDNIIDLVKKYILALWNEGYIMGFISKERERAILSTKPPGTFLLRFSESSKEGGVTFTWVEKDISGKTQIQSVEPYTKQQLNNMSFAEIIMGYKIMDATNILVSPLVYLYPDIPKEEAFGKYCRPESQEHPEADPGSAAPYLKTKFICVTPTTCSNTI

Consider `O=C(N[C@H]1CCCC[C@H]2CC[C@@H](C(=O)N3C[C@@H](c4cc[nH]c(=O)c4)CC34CC4)N2C1=O)c1ccc2ccc(CP(=O)(O)O)cc2c1` [Compound 883, ((7-(((3S,6S,10aS)-5-oxo-3-((R)-6-(2-oxo-1,2-dihydropyridin-4-yl)-4-azaspiro[2.4]heptane-4-carbonyl)decahydropyrrolo[1,2-a]azocin-6-yl)carbamoyl)naphthalen-2-yl)methyl) phosphonic acid], for which the IC50 – broadly, the concentration that inhibits the measured activity by half – was in the range of 1000 to 10000 nM in test [1] and 300 to 3000 nM in test [2].
The corresponding values for `O=C(N[C@H]1CCCC[C@H]2CC[C@@H](C(=O)N3CC(c4ccccc4)CC34CC4)N2C1=O)c1ccc2ccc(CP(=O)(O)O)cc2c1` (stereo partly drawn) [Compound 884, ((7-(((3S,6S,10aS)-5-oxo-3-(6-phenyl-4-azaspiro[2.4]heptane-4-carbonyl)decahydropyrrolo[1,2-a]azocin-6-yl)carbamoyl)naphthalen-2-yl)methyl) phosphonic acid] are 1000 to 10000 nM and 300 to 3000 nM.
The corresponding values for `C/C1=C/[C@H]2CC[C@@H](C(=O)N3CC(c4ccccc4)CC34CC4)N2C(=O)[C@@H](NC(=O)c2ccc3ccc(CP(=O)(O)O)cc3c2)CC1` (stereo partly drawn) [Compound 885, ((7-(((3S,6S,10aR,Z)-9-methyl-5-oxo-3-(6-phenyl-4-azaspiro[2.4]heptane-4-carbonyl)-1,2,3,5,6,7,8,10a-octahydropyrrolo[1,2-a]azocin-6-yl)carbamoyl)naphthalen-2-yl)methyl) phosphonic acid] are 1000 to 10000 nM and 300 to 3000 nM.
On the same counts, the results for `C[C@@H]1CC[C@H](NC(=O)c2ccc3ccc(CP(=O)(O)O)cc3c2)C(=O)N2[C@H](CC[C@H]2C(=O)N2CC(c3ccccc3)CC23CC3)C1` (stereo partly drawn) [Compound 887, ((7-(((3S,6S,9R,10aR)-9-methyl-5-oxo-3-(6-phenyl-4-azaspiro[2.4]heptane-4-carbonyl)decahydropyrrolo[1,2-a]azocin-6-yl)carbamoyl)naphthalen-2-yl)methyl) phosphonic acid] are 1000 to 10000 nM and 300 to 3000 nM.
For `C[C@H]1CC[C@H](NC(=O)c2ccc3ccc(CP(=O)(O)O)cc3c2)C(=O)N2[C@H](CC[C@H]2C(=O)N2CC(c3ccccc3)CC23CC3)C1` (stereo partly drawn) [Compound 888, ((7-(((3S,6S,9S,10aR)-9-methyl-5-oxo-3-(6-phenyl-4-azaspiro[2.4]heptane-4-carbonyl)decahydropyrrolo[1,2-a]azocin-6-yl)carbamoyl)naphthalen-2-yl)methyl) phosphonic acid], the half-maximal inhibitory concentration (IC50) in test [1] lay within 1000 to 10000 nM; in test [2] it was 300 to 3000 nM.
Turning to `O=C(N[C@H]1CCCC[C@H]2CC[C@@H](C(=O)N3CC(c4cccnc4)CC34CC4)N2C1=O)c1ccc2ccc(C(F)P(=O)(O)O)cc2c1` (stereo partly drawn) [Compound 891, (fluoro(7-(((3S,6S,10aS)-5-oxo-3-(6-(pyridin-3-yl)-4-azaspiro[2.4]heptane-4-carbonyl)decahydropyrrolo[1,2-a]azocin-6-yl)carbamoyl)naphthalen-2-yl)methyl) phosphonic acid], the half-inhibitory concentration (IC50) is 1000 to 10000 nM in test [1] and no more than 300 nM in test [2].
On the same counts, the results for `O=C(N[C@H]1CCCC[C@H]2CC[C@@H](C(=O)N3CCC(c4cccnc4)C3)N2C1=O)c1ccc2ccc(C(F)P(=O)(O)O)cc2c1` (stereo partly drawn) [Compound 892, (fluoro(7-(((3S,6S,10aS)-5-oxo-3-(3-(pyridin-3-yl)pyrrolidine-1-carbonyl)decahydropyrrolo[1,2-a]azocin-6-yl)carbamoyl)naphthalen-2-yl)methyl) phosphonic acid] are 1000 to 10000 nM and 300 to 3000 nM.
`O=C(N[C@H]1CCCC[C@H]2CC[C@@H](C(=O)N3C(=O)N(c4cccnc4)C(=O)C34CC4)N2C1=O)c1ccc2ccc(CP(=O)(O)O)cc2c1` [Compound 893, ((7-(((3S,6S,10aS)-3-(5,7-dioxo-6-(pyridin-3-yl)-4,6-diazaspiro[2.4]heptane-4-carbonyl)-5-oxodecahydropyrrolo[1,2-a]azocin-6-yl)carbamoyl)naphthalen-2-yl)methyl) phosphonic acid]: the figures for the half-maximal inhibitory concentration (IC50) in test [1] and in test [2] were 1000 to 10000 nM and 300 to 3000 nM, respectively.
On to `O=C(N[C@H]1CCCC[C@H]2CC[C@@H](C(=O)N3CC(c4ccccc4)CC34CC4)N2C1=O)c1cnc2ccc(CP(=O)(O)O)cc2c1` (stereo partly drawn) [Compound 895, ((3-(((3S,6S,10aS)-5-oxo-3-(6-phenyl-4-azaspiro[2.4]heptane-4-carbonyl)decahydropyrrolo[1,2-a]azocin-6-yl)carbamoyl)quinolin-6-yl)methyl) phosphonic acid], for which the IC50 in test [1] lay in the range of 1000 to 10000 nM; in test [2], 300 to 3000 nM.
Take `CC(c1ccc2sc(C(=O)N[C@H]3CCC[C@H]4CC[C@@H](C(=O)N5CC(c6cccnc6)C5)N4C3=O)cc2c1)P(=O)(O)O` (stereo partly drawn) [Compound 896, (1-(2-(((3S,6S,9aS)-5-oxo-3-(3-(pyridin-3-yl)azetidine-1-carbonyl)octahydro-1H-pyrrolo[1,2-a]azepin-6-yl)carbamoyl)benzo [b]thiophen-5-yl)ethyl) phosphonic acid]: the values for the IC50 in test [1] and in test [2] were 100 to 1000 nM and 3000 to 30000 nM, respectively.
The corresponding values for `Cn1ccc(C2CN(C(=O)[C@@H]3CC[C@@H]4CCCC[C@H](NC(=O)c5cc6cc(C(F)P(=O)(O)O)ccc6s5)C(=O)N43)C3(CC3)C2)cc1=O` (stereo partly drawn) [Compound 898, (fluoro(2-(((3S,6S,10aS)-3-(6-(1-methyl-2-oxo-1,2-dihydropyridin-4-yl)-4-azaspiro[2.4]heptane-4-carbonyl)-5-oxodecahydropyrrolo [1,2-a]azocin-6-yl)carbamoyl)benzo [b]thiophen-5-yl)methyl) phosphonic acid] are 1000 to 10000 nM and no more than 300 nM.
The corresponding values for `Cn1ccc(C2CCN(C(=O)[C@@H]3CC[C@@H]4CCCC[C@H](NC(=O)c5ccc6ccc(C(F)P(=O)(O)O)cc6c5)C(=O)N43)C2)cc1=O` (stereo partly drawn) [Compound 899, (fluoro(7-(((3S,6S,10aS)-3-(3-(1-methyl-2-oxo-1,2-dihydropyridin-4-yl)pyrrolidine-1-carbonyl)-5-oxodecahydropyrrolo [1,2-a]azocin-6-yl)carbamoyl)naphthalen-2-yl)methyl) phosphonic acid] are 1000 to 10000 nM and 300 to 3000 nM.
The corresponding values for `O=C(N[C@H]1CCCC[C@H]2CC[C@@H](C(=O)N3C(=O)N(c4cccnc4)C(=O)C34CC4)N2C1=O)c1cc2cc(C(F)P(=O)(O)O)ccc2s1` (stereo partly drawn) [Compound 900, ((2-(((3S,6S,10aS)-3-(5,7-dioxo-6-(pyridin-3-yl)-4,6-diazaspiro[2.4]heptane-4-carbonyl)-5-oxodecahydropyrrolo [1,2-a]azocin-6-yl)carbamoyl)benzo [b]thiophen-5-yl)fluoromethyl) phosphonic acid] are 1000 to 10000 nM and no more than 300 nM.
With `Cn1ncc(C2CCN(C(=O)[C@@H]3CC[C@@H]4CCCC[C@H](NC(=O)c5ccc6ccc(C(F)P(=O)(O)O)cc6c5)C(=O)N43)C2)cc1=O` (stereo partly drawn) [Compound 902, (fluoro(7-(((3S,6S,10aS)-3-(3-(1-methyl-6-oxo-1,6-dihydropyridazin-4-yl)pyrrolidine-1-carbonyl)-5-oxodecahydropyrrolo [1,2-a]azocin-6-yl)carbamoyl)naphthalen-2-yl)methyl) phosphonic acid], the IC50 in test [1] fell in the range of 1000 to 10000 nM; in test [2], 3000 to 30000 nM.
